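In this assay, cells in 96-well plates receive the compound at five concentrations for 48 hours. Endpoints are linearly interpolated between the surrounding concentrations. GI50: concentration for 50% inhibition of growth. TGI marks complete inhibition of growth.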
What was measured:
Assay in all cases: NCI anticancer screen, dose series, 48 h
786-0 renal = system: 786-0 renal
A498 renal = system: A498 renal
A549 NSCLC = system: A549 NSCLC
ACHN renal = system: ACHN renal
BT-549 breast = system: BT-549 breast
CAKI-1 renal = system: CAKI-1 renal
CCRF-CEM leukemia = system: CCRF-CEM leukemia
DU-145 prostate = system: DU-145 prostate
EKVX NSCLC = system: EKVX NSCLC
HCC-2998 colon = system: HCC-2998 colon
HCT-116 colon = system: HCT-116 colon
HCT-15 colon = system: HCT-15 colon
HL-60(TB) leukemia = system: HL-60(TB) leukemia
HOP-62 NSCLC = system: HOP-62 NSCLC
HOP-92 NSCLC = system: HOP-92 NSCLC
HS 578T breast = system: HS 578T breast
HT29 colon = system: HT29 colon
IGROV1 ovarian = system: IGROV1 ovarian
K-562 leukemia = system: K-562 leukemia
KM12 colon = system: KM12 colon
LOX IMVI melanoma = system: LOX IMVI melanoma
MCF7 breast = system: MCF7 breast
MDA-MB-231 breast = system: MDA-MB-231 breast
MOLT-4 leukemia = system: MOLT-4 leukemia
NCI-H226 lung = system: NCI-H226 lung
NCI-H23 lung = system: NCI-H23 lung

Compound: COc1ccc(Cn2cc3c(c2-c2cc(OC)c(OC)c(OC)c2)CCCc2cnoc2-3)cc1
- GI50 (786-0 renal): 669 nM
- TGI (786-0 renal): > 100000 nM
- GI50 (A498 renal): 696 nM
- TGI (A498 renal): 7110 nM
- GI50 (A549 NSCLC): 2340 nM
- TGI (A549 NSCLC): > 100000 nM
- GI50 (ACHN renal): 900 nM
- TGI (ACHN renal): > 100000 nM
- GI50 (BT-549 breast): 482 nM
- TGI (BT-549 breast): > 100000 nM
- GI50 (CAKI-1 renal): 490 nM
- TGI (CAKI-1 renal): > 100000 nM
- GI50 (CCRF-CEM leukemia): 415 nM
- TGI (CCRF-CEM leukemia): > 100000 nM
- GI50 (DU-145 prostate): 4110 nM
- TGI (DU-145 prostate): > 100000 nM
- GI50 (EKVX NSCLC): 3000 nM
- TGI (EKVX NSCLC): > 100000 nM
- GI50 (HCC-2998 colon): 1610 nM
- TGI (HCC-2998 colon): 10600 nM
- GI50 (HCT-116 colon): 391 nM
- TGI (HCT-116 colon): > 100000 nM
- GI50 (HCT-15 colon): 478 nM
- TGI (HCT-15 colon): > 100000 nM
- GI50 (HL-60(TB) leukemia): 350 nM
- TGI (HL-60(TB) leukemia): > 100000 nM
- GI50 (HOP-62 NSCLC): 2220 nM
- TGI (HOP-62 NSCLC): > 100000 nM
- GI50 (HOP-92 NSCLC): 1270 nM
- TGI (HOP-92 NSCLC): > 100000 nM
- GI50 (HS 578T breast): 1540 nM
- TGI (HS 578T breast): > 100000 nM
- GI50 (HT29 colon): 1130 nM
- TGI (HT29 colon): > 100000 nM
- GI50 (IGROV1 ovarian): 562 nM
- TGI (IGROV1 ovarian): > 100000 nM
- GI50 (K-562 leukemia): 422 nM
- TGI (K-562 leukemia): > 100000 nM
- GI50 (KM12 colon): 692 nM
- TGI (KM12 colon): > 100000 nM
- GI50 (LOX IMVI melanoma): 997 nM
- TGI (LOX IMVI melanoma): > 100000 nM
- GI50 (MCF7 breast): 437 nM
- TGI (MCF7 breast): > 100000 nM
- GI50 (MDA-MB-231 breast): 2540 nM
- TGI (MDA-MB-231 breast): > 100000 nM
- GI50 (MOLT-4 leukemia): 802 nM
- TGI (MOLT-4 leukemia): > 100000 nM
- GI50 (NCI-H226 lung): 1990 nM
- TGI (NCI-H226 lung): > 100000 nM
- GI50 (NCI-H23 lung): 2620 nM
- TGI (NCI-H23 lung): > 100000 nM
